Assay results from ChEMBL document CHEMBL1201862, “PubChem BioAssay data set” (2004).
Calls of active or inactive are those of the source.

Tests used:
[1] = molecular target: Estrogen receptor beta (Homo sapiens, UniProt Q92731); experiment: ERβ–SRC-3 coactivator interaction inhibitors, confirmation, orthogonal assay, biochemical, ELISA, streptavidin-HRP readout (AID 1060)
[2] = molecular target: T1, DNA dC->dU-editing enzyme APOBEC-3A (Homo sapiens, UniProt P31941); experiment: Dose Response confirmation of small molecule APOBEC3A DNA Deaminase Inhibitors via a fluorescence-based single-stranded DNA deaminase assay. [Related pubchem assays (depositor defined):AID493011, AID493024]; assay type: functional
[3] = molecular target: T2, DNA dC->dU-editing enzyme APOBEC-3G (Homo sapiens, UniProt Q9HC16); assay type: functional
[4] = molecular target: T1, DNA dC->dU-editing enzyme APOBEC-3A; experiment: SAR analysis of small molecule inhibitors of APOBEC3A DNA Deaminase via a fluorescence-based single-stranded DNA deaminase assay - Set 2.; assay type: functional; settings: read-out: IC50_Mean
[5] = molecular target: T2, DNA dC->dU-editing enzyme APOBEC-3G; experiment: SAR analysis of small molecule inhibitors of APOBEC3G DNA Deaminase via a fluorescence-based single-stranded DNA deaminase assay - Set 2.; assay type: functional; settings: read-out: IC50_Mean
[6] = molecular target: T2, DNA dC->dU-editing enzyme APOBEC-3G; experiment: APOBEC3G deaminase inhibitors, SAR follow-up, biochemical, fluorescence, single-stranded DNA substrate (AID 602136); assay type: functional; settings: read-out: IC50_Mean
[7] = molecular target: T1, DNA dC->dU-editing enzyme APOBEC-3A; experiment: SAR analysis of small molecule inhibitors of APOBEC3A DNA Deaminase via a fluorescence-based single-stranded DNA deaminase assay.; assay type: functional; settings: read-out: IC50_Mean
[8] = molecular target: Low molecular weight phosphotyrosine protein phosphatase (Homo sapiens, UniProt P24666); assay type: functional; settings: read-out: IC50_Mean;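 note: Dose-response confirmation assay measuring inhibition of LMPTP enzyme activity by fluorescence intensity read-out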
[9] = molecular target: Melanin-concentrating hormone receptor 1 (Homo sapiens, UniProt Q99705); experiment: Late-stage fluorescence-based counterscreen for antagonists of the G-protein coupled receptor 7 (GPR7): cell-based dose response assay to identify antagonists of the melanin-concentrating hormone receptor 1 (MCHR1) Set 6.; assay type: functional
[10] = molecular target: T3, Neuropeptides B/W receptor type 1 (Homo sapiens, UniProt P48145); experiment: GPR7 antagonist potency, late-stage follow-up, cell-based, fluorescence, dose response, set 6 (AID 588583); assay type: functional
T3 sequence (P48145 whole entry): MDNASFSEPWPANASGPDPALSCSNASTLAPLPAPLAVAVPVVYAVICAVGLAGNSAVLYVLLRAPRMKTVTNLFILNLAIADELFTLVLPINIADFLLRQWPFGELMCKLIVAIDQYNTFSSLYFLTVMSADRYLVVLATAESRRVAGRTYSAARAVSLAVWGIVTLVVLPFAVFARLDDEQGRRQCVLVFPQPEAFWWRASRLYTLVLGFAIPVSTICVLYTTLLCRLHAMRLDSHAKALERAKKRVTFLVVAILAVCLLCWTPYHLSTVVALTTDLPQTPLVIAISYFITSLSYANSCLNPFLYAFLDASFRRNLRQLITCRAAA

[11] = molecular target: G protein-coupled receptor kinase 5 (Homo sapiens, UniProt P34947); experiment: Navigating the Kinome. Panel member name: GPRK5; assay type: functional
[12] = molecular target: Cyclin-dependent kinase 8 (Homo sapiens, UniProt P49336); experiment: Navigating the Kinome. Panel member name: CDK8; assay type: functional
[13] = molecular target: Serine/threonine-protein kinase pim-1 (Homo sapiens, UniProt P11309); assay type: functional
[14] = molecular target: Cell division cycle 7-related protein kinase (Homo sapiens, UniProt O00311); assay type: functional;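 note: value obtained from a kinome-wide kinase panel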
[15] = molecular target: Homeodomain-interacting protein kinase 2 (Homo sapiens, UniProt Q9H2X6); assay type: functional;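 note: measured within a kinome-wide kinase profiling panel, HIPK2 being one panel member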
[16] = molecular target: MAP kinase-interacting serine/threonine-protein kinase 2 (Homo sapiens, UniProt Q9HBH9); assay type: functional
[17] = molecular target: T4, Interleukin-1 receptor-associated kinase 4 (Homo sapiens, UniProt Q9NWZ3); assay type: functional
T4 sequence (Q9NWZ3 whole entry): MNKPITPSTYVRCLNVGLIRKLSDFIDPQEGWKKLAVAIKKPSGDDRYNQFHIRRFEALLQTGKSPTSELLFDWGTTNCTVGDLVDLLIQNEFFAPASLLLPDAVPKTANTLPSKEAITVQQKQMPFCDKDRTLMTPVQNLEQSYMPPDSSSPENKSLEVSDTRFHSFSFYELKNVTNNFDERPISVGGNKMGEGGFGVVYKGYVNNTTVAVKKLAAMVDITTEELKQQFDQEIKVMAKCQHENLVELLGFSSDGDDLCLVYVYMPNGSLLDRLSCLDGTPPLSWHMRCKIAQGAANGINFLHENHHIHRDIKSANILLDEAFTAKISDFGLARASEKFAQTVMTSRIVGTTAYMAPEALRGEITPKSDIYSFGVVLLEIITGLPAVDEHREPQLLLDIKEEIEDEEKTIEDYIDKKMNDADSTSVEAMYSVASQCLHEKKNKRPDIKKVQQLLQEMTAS

[18] = molecular target: Glycogen synthase kinase-3 beta (Homo sapiens, UniProt P49841); assay type: functional;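 note: value comes from a broad kinome profiling panel, with GSK3B as the panel member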
[19] = molecular target: cAMP-dependent protein kinase catalytic subunit alpha (Homo sapiens, UniProt P17612); assay type: functional
[20] = molecular target: Dual specificity protein kinase CLK4 (Homo sapiens, UniProt Q9HAZ1); assay type: functional
[21] = molecular target: Mitogen-activated protein kinase kinase kinase kinase 4 (Homo sapiens, UniProt O95819); assay type: functional
[22] = molecular target: Cyclin-dependent kinase 2 (Homo sapiens, UniProt P24941); assay type: functional;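 note: CDK2 measured as one member of a broad kinome profiling panel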

T1 sequence (P31941 whole entry): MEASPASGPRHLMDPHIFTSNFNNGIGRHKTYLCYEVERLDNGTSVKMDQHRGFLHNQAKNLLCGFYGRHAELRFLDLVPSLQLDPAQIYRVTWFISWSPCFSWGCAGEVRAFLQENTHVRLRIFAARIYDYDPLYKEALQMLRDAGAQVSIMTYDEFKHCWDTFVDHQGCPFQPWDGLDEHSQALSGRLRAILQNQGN
T2 sequence (Q9HC16 whole entry): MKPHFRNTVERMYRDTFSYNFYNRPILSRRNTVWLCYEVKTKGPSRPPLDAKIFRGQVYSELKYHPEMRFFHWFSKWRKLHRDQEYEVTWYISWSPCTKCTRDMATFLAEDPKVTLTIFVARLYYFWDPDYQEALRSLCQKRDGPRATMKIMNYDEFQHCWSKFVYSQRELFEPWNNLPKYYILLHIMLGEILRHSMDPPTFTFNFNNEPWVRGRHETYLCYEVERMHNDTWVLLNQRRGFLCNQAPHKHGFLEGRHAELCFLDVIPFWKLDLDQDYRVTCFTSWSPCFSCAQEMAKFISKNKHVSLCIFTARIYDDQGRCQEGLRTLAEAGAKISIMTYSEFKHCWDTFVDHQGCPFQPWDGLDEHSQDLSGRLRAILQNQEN
Sequence of Dual specificity protein kinase CLK4 (Q9HAZ1 whole entry): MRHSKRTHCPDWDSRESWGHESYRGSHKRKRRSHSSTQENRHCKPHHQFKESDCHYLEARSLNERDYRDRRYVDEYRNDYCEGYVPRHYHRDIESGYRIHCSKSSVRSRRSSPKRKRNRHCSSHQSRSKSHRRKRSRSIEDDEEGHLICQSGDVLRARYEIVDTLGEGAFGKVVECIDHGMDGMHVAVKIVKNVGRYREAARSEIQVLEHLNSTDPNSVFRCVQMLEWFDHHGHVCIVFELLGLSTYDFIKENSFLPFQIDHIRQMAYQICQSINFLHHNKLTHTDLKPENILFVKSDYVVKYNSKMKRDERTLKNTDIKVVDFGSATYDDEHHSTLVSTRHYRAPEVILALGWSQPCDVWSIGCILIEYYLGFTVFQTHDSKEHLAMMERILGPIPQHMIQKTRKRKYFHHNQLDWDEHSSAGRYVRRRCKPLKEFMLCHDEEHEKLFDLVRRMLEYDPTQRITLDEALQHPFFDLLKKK
Sequence of Cell division cycle 7-related protein kinase (O00311 whole entry): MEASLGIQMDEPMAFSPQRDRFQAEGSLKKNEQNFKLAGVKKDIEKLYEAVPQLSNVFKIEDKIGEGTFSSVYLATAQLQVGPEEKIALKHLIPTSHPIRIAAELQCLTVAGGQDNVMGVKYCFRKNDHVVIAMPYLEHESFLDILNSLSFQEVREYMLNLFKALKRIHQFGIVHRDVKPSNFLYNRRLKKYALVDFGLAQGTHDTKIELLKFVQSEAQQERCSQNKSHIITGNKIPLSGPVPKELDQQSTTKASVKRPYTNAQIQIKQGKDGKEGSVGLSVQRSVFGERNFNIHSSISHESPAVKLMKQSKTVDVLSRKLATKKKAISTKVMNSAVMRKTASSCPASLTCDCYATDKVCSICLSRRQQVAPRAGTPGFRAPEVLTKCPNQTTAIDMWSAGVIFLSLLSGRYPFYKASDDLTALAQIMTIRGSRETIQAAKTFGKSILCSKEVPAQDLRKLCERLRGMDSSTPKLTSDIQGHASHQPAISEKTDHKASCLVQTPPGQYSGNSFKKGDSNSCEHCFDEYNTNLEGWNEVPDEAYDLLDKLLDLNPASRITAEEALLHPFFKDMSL
Sequence of Glycogen synthase kinase-3 beta (P49841 whole entry): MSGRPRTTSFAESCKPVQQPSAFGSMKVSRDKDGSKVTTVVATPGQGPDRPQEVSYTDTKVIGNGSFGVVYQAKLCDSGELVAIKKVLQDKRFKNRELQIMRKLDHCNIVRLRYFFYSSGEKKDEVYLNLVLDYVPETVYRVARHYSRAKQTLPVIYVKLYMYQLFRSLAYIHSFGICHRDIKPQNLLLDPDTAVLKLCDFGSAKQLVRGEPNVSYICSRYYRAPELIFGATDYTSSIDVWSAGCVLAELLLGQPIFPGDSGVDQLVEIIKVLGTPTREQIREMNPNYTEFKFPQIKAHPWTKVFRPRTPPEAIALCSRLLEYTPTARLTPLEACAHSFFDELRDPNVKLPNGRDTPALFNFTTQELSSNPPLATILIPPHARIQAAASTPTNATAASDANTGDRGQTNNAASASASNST
Sequence of Mitogen-activated protein kinase kinase kinase kinase 4 (O95819 whole entry): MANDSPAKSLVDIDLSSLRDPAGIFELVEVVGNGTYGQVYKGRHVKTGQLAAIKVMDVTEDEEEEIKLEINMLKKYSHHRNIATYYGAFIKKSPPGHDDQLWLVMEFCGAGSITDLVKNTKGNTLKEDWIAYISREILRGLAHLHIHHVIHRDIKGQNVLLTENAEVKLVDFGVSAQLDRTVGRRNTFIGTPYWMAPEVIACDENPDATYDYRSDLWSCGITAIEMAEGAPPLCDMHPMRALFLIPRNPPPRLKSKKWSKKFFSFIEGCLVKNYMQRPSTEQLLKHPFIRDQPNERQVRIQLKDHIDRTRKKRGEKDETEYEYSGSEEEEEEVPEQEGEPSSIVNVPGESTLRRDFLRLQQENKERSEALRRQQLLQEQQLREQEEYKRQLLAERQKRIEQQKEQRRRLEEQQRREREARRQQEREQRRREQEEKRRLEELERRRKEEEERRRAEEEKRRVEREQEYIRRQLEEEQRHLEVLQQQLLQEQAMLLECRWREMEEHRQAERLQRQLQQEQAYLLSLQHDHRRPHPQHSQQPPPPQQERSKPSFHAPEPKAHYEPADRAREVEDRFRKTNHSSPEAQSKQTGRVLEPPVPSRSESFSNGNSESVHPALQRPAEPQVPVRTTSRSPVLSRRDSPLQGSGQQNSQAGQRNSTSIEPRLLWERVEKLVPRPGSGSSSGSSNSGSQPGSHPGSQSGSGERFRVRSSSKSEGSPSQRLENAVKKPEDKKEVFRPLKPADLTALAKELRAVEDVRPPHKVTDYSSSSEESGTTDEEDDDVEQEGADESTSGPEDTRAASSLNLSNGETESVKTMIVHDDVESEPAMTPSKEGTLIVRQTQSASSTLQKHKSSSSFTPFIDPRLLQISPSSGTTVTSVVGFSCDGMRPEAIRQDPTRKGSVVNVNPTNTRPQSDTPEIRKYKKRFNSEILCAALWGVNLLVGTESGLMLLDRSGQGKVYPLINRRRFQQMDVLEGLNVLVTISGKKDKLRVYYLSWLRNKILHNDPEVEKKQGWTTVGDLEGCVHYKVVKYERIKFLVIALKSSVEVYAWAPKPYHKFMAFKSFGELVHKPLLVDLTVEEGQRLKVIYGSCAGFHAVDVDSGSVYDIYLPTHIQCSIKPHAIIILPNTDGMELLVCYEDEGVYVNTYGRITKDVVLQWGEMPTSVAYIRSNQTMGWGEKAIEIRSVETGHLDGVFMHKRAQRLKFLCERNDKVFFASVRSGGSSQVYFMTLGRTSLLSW
Sequence of Serine/threonine-protein kinase pim-1 (P11309 whole entry): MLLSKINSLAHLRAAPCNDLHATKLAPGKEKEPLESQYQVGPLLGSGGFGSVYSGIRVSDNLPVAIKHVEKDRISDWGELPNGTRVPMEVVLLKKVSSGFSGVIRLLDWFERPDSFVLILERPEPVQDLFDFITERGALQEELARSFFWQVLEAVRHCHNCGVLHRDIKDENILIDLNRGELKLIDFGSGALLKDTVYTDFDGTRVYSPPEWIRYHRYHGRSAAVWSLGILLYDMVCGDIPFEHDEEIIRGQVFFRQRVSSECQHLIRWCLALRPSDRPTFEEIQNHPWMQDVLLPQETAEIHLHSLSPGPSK
Sequence of Homeodomain-interacting protein kinase 2 (Q9H2X6 whole entry): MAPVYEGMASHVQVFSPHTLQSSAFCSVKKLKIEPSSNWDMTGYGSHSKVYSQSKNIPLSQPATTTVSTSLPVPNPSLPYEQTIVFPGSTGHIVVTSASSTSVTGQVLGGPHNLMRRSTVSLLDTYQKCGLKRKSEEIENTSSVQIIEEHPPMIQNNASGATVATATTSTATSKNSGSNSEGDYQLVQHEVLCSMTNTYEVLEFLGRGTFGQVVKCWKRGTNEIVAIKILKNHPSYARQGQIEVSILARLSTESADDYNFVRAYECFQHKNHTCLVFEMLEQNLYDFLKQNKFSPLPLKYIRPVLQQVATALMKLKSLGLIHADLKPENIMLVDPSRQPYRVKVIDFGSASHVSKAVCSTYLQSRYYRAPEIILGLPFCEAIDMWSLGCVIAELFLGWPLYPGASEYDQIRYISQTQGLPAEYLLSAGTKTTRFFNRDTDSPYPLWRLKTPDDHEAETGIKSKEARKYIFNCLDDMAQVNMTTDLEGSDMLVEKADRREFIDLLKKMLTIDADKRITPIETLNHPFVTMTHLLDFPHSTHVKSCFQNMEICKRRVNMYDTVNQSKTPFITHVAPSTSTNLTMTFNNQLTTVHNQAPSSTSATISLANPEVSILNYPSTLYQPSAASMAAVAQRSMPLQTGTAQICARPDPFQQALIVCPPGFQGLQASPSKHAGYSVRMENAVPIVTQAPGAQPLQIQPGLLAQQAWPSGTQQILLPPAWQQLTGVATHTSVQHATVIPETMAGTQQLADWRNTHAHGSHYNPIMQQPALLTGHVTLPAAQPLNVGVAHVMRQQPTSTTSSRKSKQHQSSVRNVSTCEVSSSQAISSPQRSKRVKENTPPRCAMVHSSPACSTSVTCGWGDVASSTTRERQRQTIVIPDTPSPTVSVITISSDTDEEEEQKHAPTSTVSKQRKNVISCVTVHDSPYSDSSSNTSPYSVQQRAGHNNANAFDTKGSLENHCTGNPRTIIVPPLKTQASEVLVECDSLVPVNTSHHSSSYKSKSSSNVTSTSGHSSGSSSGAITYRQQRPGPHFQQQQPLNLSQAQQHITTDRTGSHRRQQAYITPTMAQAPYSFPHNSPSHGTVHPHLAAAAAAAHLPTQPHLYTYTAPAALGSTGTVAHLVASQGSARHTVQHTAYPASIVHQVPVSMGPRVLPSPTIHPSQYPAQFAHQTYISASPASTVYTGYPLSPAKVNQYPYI
Sequence of Low molecular weight phosphotyrosine protein phosphatase (P24666 whole entry): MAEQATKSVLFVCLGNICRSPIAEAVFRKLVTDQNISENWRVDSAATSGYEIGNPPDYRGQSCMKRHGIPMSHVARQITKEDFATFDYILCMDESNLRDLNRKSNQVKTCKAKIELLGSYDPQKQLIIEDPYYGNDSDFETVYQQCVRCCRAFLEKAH

| SMILES | Ki [13] | Ki [14] | Ki [15] | Ki [17] | Ki [18] | Ki [19] | Ki [20] | Ki [21] | also measured |
| --- | --- | --- | --- | --- | --- | --- | --- | --- | --- |
| O=C(NCc1ccc2c(c1)OCO2)c1cc2ncc(Br)cn2n1 | – | – | – | – | – | – | – | – | IC50 [1]: 0.363 µM (not active); IC50 [2]: 9.82 µM (active); IC50 [3]: 56.5 µM (active); IC50 [4]: 21.1 µM (inactive); IC50 [5]: 73.1 µM (inactive); IC50 [6]: 35 µM (inactive); IC50 [7]: 20.3 µM (inactive); IC50 [8]: 37.4 µM (inactive) |
| N#CC(c1c(Cl)cnn(Cc2cccc3ccccc23)c1=O)c1coc2ccccc12 (stereo not given) | – | – | – | – | – | – | – | – | IC50 [9]: 0.294 µM (active); IC50 [10]: 0.294 µM (active) |
| Cc1cc(C)cc(NC(=O)NC2=NN(c3ccccc3)C(=O)C2)c1 | – | – | – | – | – | – | – | – | Ki [11]: 3.98 µM (active); Ki [12]: 3.16 µM (active) |
| O=C1Nc2ccccc2Nc2cc(-c3ccncc3Cl)ccc21 | > 10 µM (inactive) | 0.02 µM (active) | 1.26 µM (active) | 1 µM (active) | 0.251 µM (active) | 0.794 µM (active) | 0.0631 µM (active) | 0.794 µM (active) | Ki [16]: 0.2 µM (active) |
| CCOC(=O)c1c[nH]n2c(=O)cc(-c3ccncc3)nc12 | 3.16 µM (active) | 0.00501 µM (active) | 0.0501 µM (active) | > 10 µM (inactive) | 0.316 µM (active) | > 7.94 µM (inactive) | 0.0251 µM (active) | > 10 µM (inactive) | Ki [22]: > 7.94 µM (inactive) |
